From US7989212B2, “Detection of blood plasma schizadrin B of dissipating blood stasis botanical” (Shanghai Sundise, priority 2007, dated 2011)

Experiment: UPLC/MS detection of schizadrin B in blood plasma after administration of strengthening body resistance and dissipating blood stasis botanical
Format: in vivo
Conditions: plasma of mammals after drenching with the botanical; FIG. 1: rat plasma 0.5 hours after administration; ethyl acetate extraction, UPLC/MS positive ion mode
Procedure: Detection method of blood plasma schizadrin B of strengthening body resistance and dissipating blood stasis botanical includes the following steps: • (1) Pretreatment of mammalian plasma samples • a. Mammal plasma containing drugs after being administered the strengthening body resistance and dissipating blood stasis botanical was extracted with ethyl acetate at the volume ratio of 1:4, whirling for 3 to 5 min, then centrifuging at 9600 rpm for 10 min; and drying and enriching the supernatant under the condition of 25 to 30° C.; • b. Redissolve eluent with mobile phase and then analyze it with UPLC/MS; • (2) UPLC/MS detection
UPLC condition: chromatographic column: ACQUITY UPLC BEH C18 (a type of chromatographic column), 2.1×100 mm, mobile phase A: Water-Acetonitrile-Formic acid 95:5:0.1 v/v/v, mobile phase B: Acetonitrile-Formic acid 100:0.1 v/v; MS condition: electrospray ionization (ESI) ion source, detection with positive ion mode, scanning at the range of m/z 150 to 1200.
The described step (2) detects with the positive ion mode; the desolvation gas flow is 440 L/h, the desolvation gas temperature is 300° C., the cone gas flow is 50 L/h, the ion source temperature is 100° C., the spray capillary voltage is 3800 V, the sampling cone voltage is 30V, the extracting cone voltage is 2.00 V, the lens voltage is 0.1 V, and the mass scanning at the range of m/z 150 to 1200.
1. […]

## COc1cc2c(c(OC)c1OC)-c1c(cc3c(c1OC)OCO3)CC(C)C(C)C2 (stereo not shown) [Schizadrin B]
  detection of schizadrin B in blood plasma: can be detected
